Results: publication PMC4684500, “Diversity, Antimicrobial Action and Structure-Activity Relationship of Buffalo Cathelicidins” (PLoS ONE, 2015)
Values after ≈ are worked out from the molar mass of the structure shown. Where two headings read alike, the source gives them in different places. Where no end group is shown, it is not given here.

Tests used:
[1] = tested on: Stahylococcus aureus NCDC-0111; format: cell-based, Staphylococcus aureus
Protocol: (§1) The buCATHL4 peptides were synthesized by G L Biochem (Shanghai, China). Purity and molecular mass of the peptides were provided by the vendors using HPLC and mass spectrometry, respectively. The purity of all peptides were >98%. Minimum inhibitory concentrations (MIC) of buCATHL4s against the pathogenic microorganisms were tested by broth micro-dilution technique. Briefly, bacteria were grown in Mueller Hinton broth (Sigma-Aldrich, MO, USA) at 37°C. The OD of early-log phase cultures were adjusted to 0.08–0.1 and further diluted (1:200) to keep inoculums concentration nearly 10^6 colony forming units (CFU)/ml. Diluted peptides (10 μl) were mixed with equi-volume solution A (0.02% acetic acid containing 0.4% BSA) and were serially diluted in the solution B (0.01% acetic acid containing 0.2% BSA). Bacterial inoculums (90 μl) were mixed with serially diluted peptides and incubated at 37°C for 24 h without shaking. […] All peptides were tested in triplicate. For time kill kinetics experiments, peptides (1×, 2× and 4× MIC) were added to bacterial suspension of Staphylococcus aureus, Salmonella enterica and Pseudomonas aeruginosa, as described in the MIC determination method. Aliquots of representative wells were diluted and plated on Muller Hinton agar plates at 0, 1, 4, 12 and 24 h intervals. Water with 0.01% acetic acid and ampicillin (100 mg/ml) were taken as […] controls, respectively. The results were represented as log CFU/ml.

[2] = tested on: Stahylococcus aureus ATCC-29213; format: cell-based, Staphylococcus aureus
Protocol: as §1

[3] = tested on: Listeria monocytogenes ATCC-19111; format: cell-based
Protocol: as §1

[4] = tested on: Pseudomonas aeruginosa NCDC-0105; format: cell-based
Protocol: as §1

[5] = tested on: Bacillus cereus NCDC-0240; format: cell-based
Protocol: as §1

[6] = tested on: Escherichia coli MTCC-0723; format: cell-based
Protocol: as §1

[7] = tested on: Acinetobacter johnsonii NCDC-0072; format: cell-based
Protocol: as §1

[8] = tested on: Pseudomonas aeruginosa ATCC-27853; format: cell-based
Protocol: as §1

[9] = tested on: Salmonella typhimurium ATCC-14028; format: cell-based
Protocol: as §1

[10] = tested on: S. aureus biofilm; experiment: Biofilm assay (crystal violet); format: cell-based, Staphylococcus aureus; settings: peptide at 1× and 2× MIC, 24 h 37°C, crystal violet A570
Protocol: (§2) The efficacy of peptides against biofilms of S. aureus and P. aeruginosa was determined using previously described method. Overnight grown bacterial cultures were diluted (1:100) and 200 μl suspensions were mixed with each peptide (1× and 2× MIC) in a 96 well plate and incubated for 24 h at 37°C. Biofilms were fixed with paraformadehyde solution, cultures were decanted and 0.1% crystal violet solution was added to stain the film. The plate was rinsed thrice with water and air-dried. The stain was dissolved by 100 μl of acetic acid (30%) and absorbance was measured at 570 nm. The experiment was performed in triplicate, 30% acetic acid was taken as a blank.

[11] = tested on: P. aeruginosa biofilm; experiment: Biofilm assay (crystal violet); format: cell-based, Pseudomonas aeruginosa; settings: 24 h 37°C, crystal violet A570
Protocol: as §2

[12] = tested on: S. aureus; experiment: Time kill kinetics; format: cell-based, Staphylococcus aureus; settings: for Time to complete elimination of S. aureus: peptide at 4× MIC, time kill kinetics; for Growth inhibition of S. aureus in time kill kinetics: peptide at 2× MIC, plating at 0, 1, 4, 12, 24 h
Protocol: as §1

[13] = tested on: S. typhimurium; experiment: LIVE/DEAD BacLight membrane permeability assay; format: cell-based, Salmonella typhimurium; settings: peptide 200μM, SYTO9/PI; for Clumping (agglutination) of S. typhimurium after peptide addition: log phase culture; for Membrane permeability of latent (stationary phase) S. typhimurium: stationary phase culture, proportion of cells affected comparatively less
Protocol: (§3) The damage to bacterial membrane following addition of peptide was assessed by BacLight kit (Life Technologies, CA, USA). Aliquots of S. aureus, S. enterica and P. aeruginosa cultures from exponential (shaking incubation for 2, 3, and 4 h, respectively) and stationary phases (overnight incubation) were harvested by centrifugation (5000 g for 10 min) and diluted in PBS. Peptides (200μM) were added to bacterial suspension and 50 μl aliquots were removed immediately or after 1 h incubation. Equi-volume mixtures of SYTO9/PI (3 μl/ml bacterial suspension) were added to these aliquots and fluorescent micrographs of stained bacteria were taken at 1000×magnification in a microscope (Olympus BX51 fitted with DP71 camera) with a fluorescence illuminator system.

[14] = tested on: S. typhimurium; experiment: Scanning and transmission electron microscopy; format: cell-based, Salmonella typhimurium; settings: for Morphological change of S. typhimurium cells (SEM/TEM): increasing concentrations (>2× MIC)
Protocol: (§4) Early log phase cultures of S. aureus and S. enterica were subjected to different concentration of peptides and incubated at 37°C. The bacterial pellets after centrifugation (5000 g for 10 min) were washed with 0.1M cacodylate buffer (pH 7.2) and were fixed in 2.5% gluteraldehyde at 4°C for 2 h. For scanning electron microscopy, bacteria were dehydrated using gradient series of ethanol wash (30, 50, 70, 90 and absolute). The samples were air-dried overnight, gold coated (Eiko IB-3 ion coater), and viewed in a Zeiss EVO 18 Special Edition SEM. For transmission electron microscopy, fixed samples were adhered to hexagonal PELCO® Grids (Ted Pella, Inc. USA), washed once with Mili-Q water and stained with uranyl acetate (2%) buffer. Samples were viewed in a JEM 1011 (Jeol, Japan) microscope.

[15] = tested on: S. aureus, S. typhimurium and P. aeruginosa; experiment: Time kill kinetics, three pathogens; format: cell-based; settings: peptide at 4× MIC
Protocol: as §1

[16] = tested on: bacterial biofilm (S. aureus and P. aeruginosa); experiment: Biofilm assay, overall statement; format: cell-based; settings: summary in discussion
Protocol: as §2

[17] = tested on: S. aureus; experiment: LIVE/DEAD BacLight membrane permeability assay; format: cell-based, Staphylococcus aureus; settings: peptide 200μM, log phase culture, SYTO9/PI
Protocol: as §3

[18] = tested on: S. aureus; experiment: Scanning and transmission electron microscopy; format: cell-based, Staphylococcus aureus
Protocol: as §4

[19] = increasing concentrations (>2× MIC)

Compound	Reduction in biofilm growth of S. aureus [10]	Reduction in biofilm growth of P. aeruginosa ([11]; peptide at 1× and 2× MIC)	Time to complete elimination of S. aureus [12] [h]	Clumping (agglutination) of S. typhimurium after peptide addition [13]	Morphological change of S. typhimurium cells (SEM/TEM) [14]	MIC ([1]; 24 h) [µM]	MIC ([2]; ATCC-29213, 24 h) [µM]	MIC ([3]; ATCC-19111, 24 h) [µM]	MIC ([4]; NCDC-0105, 24 h) [µM]	MIC ([5]; NCDC-0240, 24 h) [µM]	MIC ([6]; MTCC-0723, 24 h) [µM]	MIC ([7]; 24 h) [µM]	MIC ([8]; ATCC-27853, 24 h) [µM]	MIC ([9]; ATCC-14028, 24 h) [µM]	Killing rate compared with indolicidin and ampicillin [15]	Effect against growth of bacterial biofilms (overall) [16]	Clumping (agglutination) of S. aureus after peptide addition [17]	Morphological change of S. aureus cells (SEM/TEM) [18, 19]	Morphological change of S. aureus cells (SEM/TEM) ([18]; lower concentrations (≤2× MIC))	Growth inhibition of S. aureus in time kill kinetics [12]	also measured
CC[C@H](C)[C@H](N)C(=O)N[C@@H](CC(C)C)C(=O)N1CCC[C@H]1C(=O)N[C@@H](Cc1c[nH]c2ccccc12)C(=O)N[C@@H](CCCCN)C(=O)N[C@@H](Cc1c[nH]c2ccccc12)C(=O)N1CCC[C@H]1C(=O)N[C@@H](Cc1c[nH]c2ccccc12)C(=O)N[C@@H](Cc1c[nH]c2ccccc12)C(=O)N1CCC[C@H]1C(=O)N[C@@H](Cc1c[nH]c2ccccc12)C(=O)N[C@@H](CCCNC(=N)N)C(=O)N[C@@H](CCCNC(=N)N)C(N)=O [Indolicidin, indolicidin, reference compound]	effective	effective	–	–	–	–	–	–	–	–	–	–	–	–	–	–	–	–	–	–	MIC ([1]; Stahylococcus aureus NCDC-0111, broth microdilution, Mueller Hinton broth, ~10^6 CFU/ml, 37°C 24 h, no visible turbidity, triplicate): 1.5 µM (≈ 2.86 µg/mL); MIC ([2]; Stahylococcus aureus ATCC-29213, broth microdilution, Mueller Hinton broth, ~10^6 CFU/ml, 37°C 24 h, no visible turbidity, triplicate): 3 µM (≈ 5.72 µg/mL); MIC ([3]; Listeria monocytogenes ATCC-19111, broth microdilution, Mueller Hinton broth, ~10^6 CFU/ml, 37°C 24 h, no visible turbidity, triplicate): 6 µM (≈ 11.4 µg/mL); MIC ([4]; Pseudomonas aeruginosa NCDC-0105, broth microdilution, Mueller Hinton broth, ~10^6 CFU/ml, 37°C 24 h, no visible turbidity, triplicate): 12.5 µM (≈ 23.8 µg/mL); MIC ([5]; Bacillus cereus NCDC-0240, broth microdilution, Mueller Hinton broth, ~10^6 CFU/ml, 37°C 24 h, no visible turbidity, triplicate): 0.8 µM (≈ 1.53 µg/mL); MIC ([6]; Escherichia coli MTCC-0723, broth microdilution, Mueller Hinton broth, ~10^6 CFU/ml, 37°C 24 h, no visible turbidity, triplicate): 0.8 µM (≈ 1.53 µg/mL); MIC ([7]; Acinetobacter johnsonii NCDC-0072, broth microdilution, Mueller Hinton broth, ~10^6 CFU/ml, 37°C 24 h, no visible turbidity, triplicate): 6 µM (≈ 11.4 µg/mL); MIC ([8]; Pseudomonas aeruginosa ATCC-27853, broth microdilution, Mueller Hinton broth, ~10^6 CFU/ml, 37°C 24 h, no visible turbidity, triplicate): 25 µM (≈ 47.7 µg/mL); MIC ([9]; Salmonella typhimurium ATCC-14028, broth microdilution, Mueller Hinton broth, ~10^6 CFU/ml, 37°C 24 h, no visible turbidity, triplicate): 12.5 µM (≈ 23.8 µg/mL)
AIPWSIWWHLLFKG [buCATHL4G]	–	–	4	immediate clumping	budding	12.5	0.8	1.5	200	50	50	25	200	3	comparatively better killing rate	no marked effect	immediate clumping	budding	swelling and blebing	–	–
AIPWSIWWRLLFKG [buCATHL4F]	–	–	4	immediate clumping	budding	6	6	3	50	100	>200	200	100	0.2	–	no marked effect	immediate clumping	budding	swelling and blebing	complete growth inhibition	Membrane permeability of latent (stationary phase) S. typhimurium [13]: affected membrane permeability; Reduction in biofilm growth of P. aeruginosa ([11]; peptide at 2× MIC): considerably
GLPWILLRWLFFRG [buCATHL4A]	–	–	–	–	–	25	3	6	>200	100	200	200	>200	100	–	–	–	–	–	–	–
RIRFPWPWRWPWWPRFRG [buCATHL4D]	substantial	substantial	–	–	–	12.5	6	6	50	1.5	6	50	25	50	comparatively better killing rate	–	–	–	–	complete growth inhibition	Membrane permeability of latent (stationary phase) S. typhimurium [13]: affected membrane permeability; Formation of negative curvature on membrane (SEM/TEM) ([14]; more evident with S. typhimurium): Formation of negative curvature
